Measurements reported in ChEMBL document CHEMBL1157172, “Rational design, synthesis, and in vivo evaluation of the antileukemic activity of six new alkylating steroidal esters” (Bioorg Med Chem, 2008).
Activity calls are given as the source filed them. The rule behind the calls is not given here.

Columns and labels:
P388 [1] = test: Antitumor activity in BDF1 mouse bearing P388 cells assessed as mean survival days at 7.5 mg/kg/day, ip; type: functional; conditions: route intraperitoneal
P388 [2] = test: Increase in median life span in BDF1 mouse bearing P388 cells at 7.5 mg/kg/day, ip relative to corn oil; type: functional; conditions: route intraperitoneal
L1210 [3] = test: Antitumor activity in BDF1 mouse L1210 cells assessed as mean survival days at 7.5 mg/kg/day, ip; type: functional; conditions: route intraperitoneal
Mus musculus = test: (§1) Acute toxicity in ip dosed BALB/c mouse after 30 days; type: organism-based; conditions: in vivo, 720 h
[4] = as §1; type: organism-based; conditions: BALB/c, in vivo
P388 [5] = test: Antitumor activity in BDF1 mouse bearing P388 cells assessed as number of cured mouse at 7.5 mg/kg/day, ip after 90 days; type: functional, organism-based
L1210 [6] = test: Antitumor activity in BDF1 mouse L1210 cells assessed as number of cured mouse at 7.5 mg/kg/day, ip after 90 days; type: functional, organism-based
L1210 [7] = test: Increase in median life span in BDF1 mouse L1210 cells at 7.5 mg/kg/day, ip relative to corn oil; type: functional; conditions: route intraperitoneal
L1210 [8] = test: Antitumor activity in BDF1 mouse L1210 cells assessed as mean survival days at 12.5 mg/kg/day, ip; type: functional; conditions: route intraperitoneal
L1210 [9] = test: Increase in median life span in BDF1 mouse L1210 cells at 12.5 mg/kg/day, ip relative to corn oil; type: functional; conditions: route intraperitoneal
P388 [10] = test: Increase in median life span in BDF1 mouse bearing P388 cells at 12.5 mg/kg/day, ip relative to corn oil; type: functional; conditions: route intraperitoneal
P388 [11] = test: Antitumor activity in BDF1 mouse bearing P388 cells assessed as number of cured mouse at 12.5 mg/kg/day, ip after 90 days; type: functional, organism-based
L1210 [12] = test: Antitumor activity in BDF1 mouse L1210 cells assessed as number of cured mouse at 12.5 mg/kg/day, ip after 90 days; type: functional, organism-based
P388 [13] = test: Antitumor activity in BDF1 mouse bearing P388 cells assessed as mean survival days at 12.5 mg/kg/day, ip; type: functional; conditions: route intraperitoneal
L1210 [14] = test: Antitumor activity in BDF1 mouse L1210 cells assessed as number of cured mouse at 50 mg/kg/day, ip after 90 days; type: functional, organism-based
L1210 [15] = test: Antitumor activity in BDF1 mouse L1210 cells assessed as mean survival days at 50 mg/kg/day, ip; type: functional; conditions: route intraperitoneal
L1210 [16] = test: Increase in median life span in BDF1 mouse L1210 cells at 50 mg/kg/day, ip relative to corn oil; type: functional; conditions: route intraperitoneal
P388 [17] = test: Increase in median life span in BDF1 mouse bearing P388 cells at 50 mg/kg/day, ip relative to corn oil; type: functional; conditions: route intraperitoneal
P388 [18] = test: Antitumor activity in BDF1 mouse bearing P388 cells assessed as number of cured mouse at 50 mg/kg/day, ip after 90 days; type: functional, organism-based
P388 [19] = test: Antitumor activity in BDF1 mouse bearing P388 cells assessed as mean survival days at 50 mg/kg/day, ip; type: functional; conditions: route intraperitoneal
L1210 [20] = test: Antitumor activity in BDF1 mouse L1210 cells assessed as number of cured mouse at 120 mg/kg/day, ip after 90 days; type: functional, organism-based
L1210 [21] = test: Increase in median life span in BDF1 mouse L1210 cells at 120 mg/kg/day, ip relative to corn oil; type: functional; conditions: route intraperitoneal
L1210 [22] = test: Antitumor activity in BDF1 mouse L1210 cells assessed as mean survival days at 120 mg/kg/day, ip; type: functional; conditions: route intraperitoneal
P388 [23] = test: Antitumor activity in BDF1 mouse bearing P388 cells assessed as mean survival days at 120 mg/kg/day, ip; type: functional; conditions: route intraperitoneal
P388 [24] = test: Increase in median life span in BDF1 mouse bearing P388 cells at 120 mg/kg/day, ip relative to corn oil; type: functional; conditions: route intraperitoneal
L1210 [25] = test: Antitumor activity in BDF1 mouse L1210 cells assessed as mean survival days at 30 mg/kg/day, ip; type: functional; conditions: route intraperitoneal
L1210 [26] = test: Antitumor activity in BDF1 mouse L1210 cells assessed as number of cured mouse at 30 mg/kg/day, ip after 90 days; type: functional, organism-based
P388 [27] = test: Antitumor activity in BDF1 mouse bearing P388 cells assessed as mean survival days at 30 mg/kg/day, ip; type: functional; conditions: route intraperitoneal
P388 [28] = test: Increase in median life span in BDF1 mouse bearing P388 cells at 30 mg/kg/day, ip relative to corn oil; type: functional; conditions: route intraperitoneal
L1210 [29] = test: Increase in median life span in BDF1 mouse L1210 cells at 30 mg/kg/day, ip relative to corn oil; type: functional; conditions: route intraperitoneal
P388 [30] = test: Increase in median life span in BDF1 mouse bearing P388 cells at 22 mg/kg/day, ip relative to corn oil; type: functional; conditions: route intraperitoneal
L1210 [31] = test: Increase in median life span in BDF1 mouse L1210 cells at 22 mg/kg/day, ip relative to corn oil; type: functional; conditions: route intraperitoneal
P388 [32] = test: Antitumor activity in BDF1 mouse bearing P388 cells assessed as mean survival days at 22 mg/kg/day, ip; type: functional; conditions: route intraperitoneal
P388 [33] = test: Antitumor activity in BDF1 mouse bearing P388 cells assessed as number of cured mouse at 22 mg/kg/day, ip after 90 days; type: functional, organism-based
L1210 [34] = test: Antitumor activity in BDF1 mouse L1210 cells assessed as mean survival days at 22 mg/kg/day, ip; type: functional; conditions: route intraperitoneal
L1210 [35] = test: Antitumor activity in BDF1 mouse L1210 cells assessed as number of cured mouse at 22 mg/kg/day, ip after 90 days; type: functional, organism-based
L1210 [36] = test: Antitumor activity in BDF1 mouse L1210 cells assessed as number of cured mouse at 200 mg/kg/day, ip after 90 days; type: functional, organism-based
L1210 [37] = test: Increase in median life span in BDF1 mouse L1210 cells at 200 mg/kg/day, ip relative to corn oil; type: functional; conditions: route intraperitoneal
P388 [38] = test: Antitumor activity in BDF1 mouse bearing P388 cells assessed as mean survival days at 200 mg/kg/day, ip; type: functional; conditions: route intraperitoneal
L1210 [39] = test: Antitumor activity in BDF1 mouse L1210 cells assessed as mean survival days at 200 mg/kg/day, ip; type: functional; conditions: route intraperitoneal
P388 [40] = test: Increase in median life span in BDF1 mouse bearing P388 cells at 200 mg/kg/day, ip relative to corn oil; type: functional; conditions: route intraperitoneal
P388 [41] = test: Antitumor activity in BDF1 mouse bearing P388 cells assessed as number of cured mouse at 200 mg/kg/day, ip after 90 days; type: functional, organism-based

Q: For O=C(O)CCCc1ccc(N(CCCl)CCCl)cc1 [CHLORAMBUCIL], which Survival (P388 [1]) is on record?
A: 14.7 days

Q: And the Activity (P388 [2])?
A: 155%

Q: And the Survival (L1210 [3])?
A: 12.3 days

Q: What about the LD10 (Mus musculus) of the same molecule?
A: 15 mg/kg

Q: And the LD50 at 720 h [4]?
A: 24 mg/kg

Q: And the Activity (P388 [5])?
A: inactive

Q: And the Activity (L1210 [6])?
A: inactive

Q: And the Activity (L1210 [7])?
A: 114%

Q: Which Survival (L1210 [8]) does the source give for CC(=O)N[C@H]1CC[C@H]2[C@@H]3C(=O)C=C4C[C@@H](OC(=O)Cc5ccc(N(CCCl)CCCl)cc5)CC[C@]4(C)[C@H]3CC[C@]12C here?
A: 26.3 days

Q: And the Activity (L1210 [9])?
A: 243%

Q: And the Activity (P388 [10])?
A: 314%

Q: And the Activity (P388 [11])?
A: inactive

Q: And the Activity (L1210 [12])?
A: inactive

Q: What about the Survival (P388 [13]) of the same molecule?
A: 29.8 days

Q: What about the LD10 (Mus musculus) of the same molecule?
A: 25 mg/kg

Q: What about the LD50 at 720 h [4] of the same molecule?
A: 75 mg/kg

Q: Which results are given for CC(=O)N[C@H]1CC[C@H]2[C@@H]3NC(=O)C=C4C[C@@H](OC(=O)CCCc5ccc(N(CCCl)CCCl)cc5)CC[C@]4(C)[C@H]3CC[C@]12C?
A: Activity (L1210 [14]): inactive; Survival (L1210 [15]): 15.2 days; Activity (L1210 [16]): 140.7%; Activity (P388 [17]): 231%; LD10 (Mus musculus): 100 mg/kg; LD50 at 720 h [4]: 180 mg/kg; Activity (P388 [18]): inactive; Survival (P388 [19]): 22 days

Q: For CC(=O)N[C@H]1CC[C@H]2[C@@H]3NC(=O)C=C4C[C@@H](OC(=O)c5ccc(C)c(N(CCCl)CCCl)c5)CC[C@]4(C)[C@H]3CC[C@]12C, which Activity (L1210 [20]) is on record?
A: inactive

Q: And the Activity (L1210 [21])?
A: 189.8%

Q: And the Survival (L1210 [22])?
A: 20.5 days

Q: And the LD10 (Mus musculus)?
A: 240 mg/kg

Q: And the LD50 at 720 h [4]?
A: 280 mg/kg

Q: And the Survival (P388 [23])?
A: 28.5 days

Q: What about the Activity (P388 [24]) of the same molecule?
A: 300%

Q: With CC(=O)N[C@H]1CC[C@H]2[C@@H]3NC(=O)C=C4C[C@@H](OC(=O)Cc5ccc(N(CCCl)CCCl)cc5)CC[C@]4(C)[C@H]3CC[C@]12C as the molecule, how does the Survival (L1210 [25]) read?
A: 15.6 days

Q: And the Activity (L1210 [26])?
A: inactive

Q: And the Survival (P388 [27])?
A: 21 days

Q: And the LD10 (Mus musculus)?
A: 60 mg/kg

Q: And the LD50 at 720 h [4]?
A: 80 mg/kg

Q: What about the Activity (P388 [28]) of the same molecule?
A: 221%

Q: What about the Activity (L1210 [29]) of the same molecule?
A: 144.4%

Q: What does the source list for CC(=O)N[C@H]1CC[C@H]2[C@@H]3C(=O)C=C4C[C@@H](OC(=O)CCCc5ccc(N(CCCl)CCCl)cc5)CC[C@]4(C)[C@H]3CC[C@]12C?
A: Activity (P388 [30]): 198%; Activity (L1210 [31]): 150%; Survival (P388 [32]): 18.8 days; Activity (P388 [33]): inactive; LD10 (Mus musculus): 44 mg/kg; LD50 at 720 h [4]: 87 mg/kg; Survival (L1210 [34]): 16.2 days; Activity (L1210 [35]): inactive

Q: With CC(=O)N[C@H]1CC[C@H]2[C@@H]3C(=O)C=C4C[C@@H](OC(=O)c5ccc(C)c(N(CCCl)CCCl)c5)CC[C@]4(C)[C@H]3CC[C@]12C as the molecule, how does the Activity (L1210 [36]) read?
A: inactive

Q: What about the Activity (L1210 [37]) of the same molecule?
A: 127%

Q: And the LD10 (Mus musculus)?
A: 400 mg/kg

Q: And the LD50 at 720 h [4]?
A: 600 mg/kg

Q: And the Survival (P388 [38])?
A: 14.6 days

Q: What about the Survival (L1210 [39]) of the same molecule?
A: 13.7 days

Q: And the Activity (P388 [40])?
A: 153%

Q: And the Activity (P388 [41])?
A: inactive
